Active and inactive are the calls of the source. The calls are words filed in the database; no cut-off is given here.
How the values were obtained:
[1] = target: T1, Cysteine protease ATG4B (Homo sapiens) (UniProt Q9Y4P1); experiment: Inhibition of ATG4B (unknown origin) at 100 uM incubated up to 1 hr in presence of fluorescent protein substrate by FRET-based-LC3 cleavage assay relative to control
T1 sequence (whole entry): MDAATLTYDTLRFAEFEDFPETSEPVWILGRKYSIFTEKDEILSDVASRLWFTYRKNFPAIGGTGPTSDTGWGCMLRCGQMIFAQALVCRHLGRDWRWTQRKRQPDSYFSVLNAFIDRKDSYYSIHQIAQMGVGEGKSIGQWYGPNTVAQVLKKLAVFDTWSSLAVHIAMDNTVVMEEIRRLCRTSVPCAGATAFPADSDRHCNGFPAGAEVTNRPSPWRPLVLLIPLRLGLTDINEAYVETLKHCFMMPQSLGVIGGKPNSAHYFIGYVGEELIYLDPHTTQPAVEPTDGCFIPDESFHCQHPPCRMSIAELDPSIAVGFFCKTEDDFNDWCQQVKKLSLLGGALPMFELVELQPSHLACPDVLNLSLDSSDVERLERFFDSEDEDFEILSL

[2] = target: T1, Cysteine protease ATG4B (Homo sapiens); experiment: Inhibition of ATG4B (unknown origin) at 1.6 uM incubated up to 1 hr in presence of fluorescent protein substrate by FRET-based-LC3 cleavage assay relative to control
K562 [3] = experiment: Synergistic cytotoxicity against human K562 cells assessed as reduction in cell viability at 5 to 10 uM in presence of 0.5 uM imatinib incubated for 72 hrs by trypan blue staining based assay relative to compound alone; format: functional
BV-173 = experiment: Cytotoxicity against human BV173 cells assessed as reduction in colony forming cells at 5 to 10 uM in presence of 0.25 to 0.5 uM imatinib incubated for 2 weeks; format: functional, cell-based
MDA-MB-231 [4] = experiment: Cytotoxicity against human MDA-MB-231 cells assessed as induction of cell killing incubated for 72 hrs by crystal violet staining based assay; format: functional; conditions: MDA-MB-231, 72 h
MDA-MB-231 [5] = experiment: Inhibition of autophagic flux in wortmannin-treated human MDA-MB-231 cells assessed as increase in p62 levels at 50 uM by Western blot analysis; format: functional, cell-based
[6] = Cytotoxicity against human MDA-MB-231-R8 cells assessed as induction of cell killing incubated for 72 hrs by crystal violet staining based assay; format: functional
Bone marrow cell = experiment: Cytotoxicity against human CD34+ normal bone marrow cells […] assessed as reduction in colony forming cells up to 10 uM incubated for 12 to 14 days; format: cell-based
Homo sapiens [7] = organism: Homo sapiens; experiment: Cytotoxicity against human CD34+ CML cells obtained from IM-nonresponding patient assessed as reduction in colony forming cells at 10 uM in presence of 5 imatinib incubated for 12 to 14 days; format: functional, cell-based
[8] = Cytotoxicity against human SUM149PT-R75 cells assessed as induction of cell killing incubated for 72 hrs by crystal violet staining based assay; format: functional
SUM149PT = experiment: Cytotoxicity against human SUM149PT cells assessed as induction of cell killing incubated for 72 hrs by crystal violet staining based assay; format: functional
K562 [9] = experiment: Synergistic induction of apoptosis in human K562 cells assessed as reduction in cell viability at 5 to 10 uM in presence of 0.5 uM imatinib incubated for 72 hrs by Annexin V-APC and propidium iodide staining based flow cytometry relative to compound alone; format: functional
MDA-MB-231 [10] = experiment: Inhibition of autophagic flux in wortmannin-treated human MDA-MB-231 cells assessed as increase in LC3B-II levels at 50 uM by Western blot analysis; format: functional, cell-based
MDA-MB-231 [11] = experiment: Inhibition of autophagic flux in bafilomycin A-treated human MDA-MB-231 cells assessed as increase in LC3B-II levels at 50 uM by Western blot analysis; format: functional, cell-based
Cysteine protease ATG4B = target: T2, Cysteine protease ATG4B (Homo sapiens, UniProt Q9Y4P1); experiment: Inhibition of ATG4B (unknown origin) incubated up to 1 hr in presence of fluorescent protein substrate by FRET-based-LC3 cleavage assay
T2 sequence (Q9Y4P1 whole entry): T1 sequence (whole entry)

MDA-MB-231 [12] = experiment: Inhibition of autophagic flux in bafilomycin A-treated human MDA-MB-231 cells assessed as increase in p62 levels at 50 uM by Western blot analysis; format: functional, cell-based
Homo sapiens [13] = organism: Homo sapiens; experiment: Cytotoxicity against human CD34+ CML cells obtained from IM-nonresponding patient assessed as reduction in colony forming cells at 10 uM in presence of 150 nM DA incubated for 12 to 14 days; format: functional, cell-based

Compound | inhibition [1] [%] | inhibition [2] [%] | IC50 (Cysteine protease ATG4B) [µM] | IC50 (MDA-MB-231 [4]) [µM] | IC50 [6] [µM] | IC50 [8] [µM] | IC50 (SUM149PT) [µM] | also measured
O=C(Nc1ccccn1)Nc1ncc([N+](=O)[O-])s1 | 3 | 0 |  |  |  |  |  | 
O=C(O)CCC(NC(=O)Nc1ncc([N+](=O)[O-])s1)C(=O)O (stereo not drawn) | 27 | 10 |  |  |  |  |  | 
O=C(Nc1ccccc1)Nc1ncc([N+](=O)[O-])s1 | 21 | 17 |  |  |  |  |  | 
O=C(Nc1ncc([N+](=O)[O-])s1)NC(Cc1ccccc1)C(=O)O (stereo not drawn) | 17 | 0 |  |  |  |  |  | 

Second part, led by results:

inhibition [1] [%] | inhibition [2] [%] | IC50 (Cysteine protease ATG4B) [µM] | Compound | IC50 (MDA-MB-231 [4]) [µM] | IC50 [6] [µM] | IC50 [8] [µM] | IC50 (SUM149PT) [µM] | also measured
 |  | 1.7 | O=C(NCc1ccccc1)Nc1ncc([N+](=O)[O-])s1 | 42.9 to 59.1 | 23.3 to 30.8 | 24.5 to 34.1 | 25.6 to 33.2 | Activity (K562 [3]): Active; Activity (BV-173): Active; Activity (MDA-MB-231 [5]): Active; Activity (Bone marrow cell): Non-Toxic; Activity (Homo sapiens [7]): Active; Activity (K562 [9]): Active; Activity (MDA-MB-231 [10]): Active; Activity (MDA-MB-231 [11]): Active; Activity (MDA-MB-231 [12]): Active; Activity (Homo sapiens [13]): Active
 |  | 1.6 | COc1ccc(CNC(=O)Nc2ncc([N+](=O)[O-])s2)cc1 | 17.6 to 23.4 | 5.92 to 9.09 | 26 to 35.1 | 15.2 to 22.6 | 

From ChEMBL document CHEMBL4482321, “Compounds and methods for treatment of cancer by inhibiting atg4b and blocking autophagy” (2017)
